Test results as given in US4200578A, “Thiazole derivatives” (Bristol-Myers Company, priority 1978, dated 1980).
Where two headings read alike, the source gives them in different places.

Legend:
[1] = target: T1, histamine H2-receptor (isolated guinea pig right atria) (Cavia porcellus, UniProt P47747); assay: Histamine H2-receptor antagonism, isolated guinea pig right atria assay; details: for Histamine ED50 with 95% confidence limits, after test compound: ED50 of histamine in presence of test compound 3 × 10^-5 M, 30 minute incubation, N = 8 (cimetidine), 2 (BL-6040, BL-6044); for potency as histamine H2-receptor antagonist compared with cimetidine: isolated guinea pig atria (in vitro); for Concentration-Response Curve Displacement Factor: test compound 3 × 10^-5 M
T1 construct: The spontaneously beating right atrium was dissected free from other tissues; from tissue; host or cells: spontaneously beating right atrium of male Hartley strain guinea pigs
Method: The present comparative studies were carried out using a modification of the procedure reported by Reinhardt et al., Agents and Actions, 4, 217 (1974).
Male Hartley strain guinea pigs (350-450 gm.) were sacrificed by a blow on the head. The heart was excised and placed in a Petri dish of oxygenated (95% O2, 5% CO2) modified Krebs solution (g./liter: NaCl 6.6, KCl 0.35, MgSO4.7 H2 O 0.295, KH2 PO4 0.162, CaCl2 0.238, NaHCO3 2.1 and dextrose 2.09). The spontaneously beating right atrium was dissected free from other tissues and a silk thread (4-0) attached to each end. The atrium was suspended in a 20 ml. muscle chamber containing oxygenated modified Krebs solution maintained at 32° C. Atrial contractions were recorded isometrically by means of a Grass FT 0.03 force displacement transducer and recordings of contractile force and rate were made with Beckman RP Dynograph.
A resting tension of 1 g. was applied to the atrium and it was allowed to equilibrate for 1 hour.
Concentration-response curve displacement factors were calculated as follows: [formula] The factors obtained for BL-6040 and BL-6044 were then expressed as ratios of the factor obtained for cimetidine. [formula]

gastric acid output = assay: Gastric antisecretory activity in the two hour pylorus ligated (Shay) rat; type: in vivo, rat (male Long Evans); details: for ED50: Rattus norvegicus, 2 h; for ED50 / Percent Inhibition Acid Output / Potency Ratio: ip; for potency as inhibitor of gastric acid secretion compared with cimetidine: rats (in vivo); for Potency Ratio: relative to cimetidine (1.0)
Text: Determination of Gastric Antisecretory Activity in the Two Hour Pylorus Ligated (Shay) Rat
The pyloric ligation procedure in the rat was designed by Shay et al., Gastroenterology, 5, 53 (1945) for the study of perforating gastric ulcers; however, as the method became known, it was also employed as a means of studing rat gastric secretion, Shay et al., Gastroenterology, 26, 906 (1954), Brodie, D. A., Am. J. Dig. Dis., 11, 231 (1966). A modification of this procedure is presently used to evaluate compounds for gastric antisecretory activity.
Male Long Evans rats, 280-300 gm., are used. The animals are placed in individual cages and fasted for 24 hours with free access to water. Under ether anesthesia, the stomach is reached through a midline incision, and a cotton-thread ligature is placed around the pylorus. After wound closure, ether administration is stopped and either cimetidine, BL-6040, BL-6044 or vehicle is administered intraperitoneally in a volume of […]. All compounds are solubilized with one equivalent of HCl and brought to the proper volume with water. The animals are returned to their cages from which the water bottles have been removed and two hours later are sacrificed with ether. The stomach is removed and the two hour gastric collection is drained into a graduated test tube for volume determination. Titratable acidity is measured by titrating a one ml. sample to pH 7.0 with 0.02 NaOH, using an Autoburet and electrometric pH meter (Radiometer). Titratable acid output is calculated in microequivalents by mutiplying the volume in milliliters by the acid concentration in milliequivalents per liter. The percent inhibition of acid output is calculated as follows [formula]

gastric secretion = details: animals and man; cited from earlier work
[2] = cited from earlier work
histamine H2-receptor = details: cited from earlier work
[3] = in vivo; cited from earlier work
peptic ulcer disease = details: clinical evaluation; cited from earlier work
[4] = inhibition of gastric acid output, two hours, read-out: ED50
[5] = inhibition of gastric acid output

T1 sequence (P47747 whole entry): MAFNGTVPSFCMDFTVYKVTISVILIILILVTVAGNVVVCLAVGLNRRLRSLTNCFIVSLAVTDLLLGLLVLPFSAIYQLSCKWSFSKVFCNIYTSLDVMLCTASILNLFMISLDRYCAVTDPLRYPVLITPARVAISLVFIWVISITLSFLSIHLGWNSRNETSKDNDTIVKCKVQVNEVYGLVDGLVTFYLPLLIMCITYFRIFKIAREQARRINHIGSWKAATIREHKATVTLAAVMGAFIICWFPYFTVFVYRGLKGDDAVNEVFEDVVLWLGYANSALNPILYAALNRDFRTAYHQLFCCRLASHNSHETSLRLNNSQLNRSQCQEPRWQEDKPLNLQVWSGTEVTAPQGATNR

SMILES | Histamine ED50 with 95% confidence limits, after test compound [1] | potency as histamine H2-receptor antagonist compared with cimetidine [1] | Concentration-Response Curve Displacement Factor [1] | ED50 (gastric acid output; [4]) | Percent Inhibition Acid Output (gastric acid output; 5 μMole/kg, two hours) | Percent Inhibition Acid Output (gastric acid output; 10 μMole/kg, two hours) | Percent Inhibition Acid Output (gastric acid output; 20 μMole/kg, two hours) | potency as inhibitor of gastric acid secretion compared with cimetidine (gastric acid output) | Potency Ratio (gastric acid output; [5]) | inhibition of gastric secretion (gastric secretion) | oral absorption ([2]; in vivo, po) | H2-receptor antagonism (histamine H2-receptor) | ED50 (gastric acid output) | half-life ([2]; in vivo) | toxicity (agranulocytosis) [3] | efficacy in the treatment of peptic ulcer disease (peptic ulcer disease) | oral activity ([2]; man)
C#CCNC(=C[N+](=O)[O-])NCCSCc1nccs1 [BL-6040, 1-Nitro-2-(2-propynylamino)-2-{2-[(thiazol-2-yl)methylthio]ethylamino}ethylene] | 20.79 µg/mL | more potent than cimetidine | 46.20 | 4.11 µmol/kg | 53% | 69% | 80% | more potent than cimetidine | 2.93 |  |  |  |  |  |  |  | 
C#CCNC(=NCCSCc1nccs1)NC#N [BL-6044, N-Cyano-N'-(2-propyn-1-yl)-N"-{2-[(thiazol-2-yl)methylthio]ethyl}guanidine] | 14.25 µg/mL | more potent than cimetidine | 43.18 | 5.73 µmol/kg | 52% | 58% | 73% | more potent than cimetidine | 2.11 |  |  |  |  |  |  |  | 
CNC(=S)NCCCCc1cnc[nH]1 [Burimamide] |  |  |  |  |  |  |  |  |  | inhibits gastric secretion in animals and man | poor | a competitive antagonist of these receptors |  |  |  |  | 
CN/C(=N/CCSCc1nc[nH]c1C)NC#N [Cimetidine, reference compound] | 4.80 µg/mL |  | 25.26 |  | 26% | 45% | 76% |  |  |  |  | as effective an H2 antagonist as metiamide | 12.1 µmol/kg | relatively short | without producing agranulocytosis | effective therapeutic agent in the treatment of peptic ulcer disease | 
C/N=C(\S)NCCSCc1[nH]cnc1C [Metiamide] |  |  |  |  |  |  |  |  |  |  |  | more potent than burimamide |  |  | toxicity (agranulocytosis) |  | orally active in man
